Test results from patent US9023812B2, “Neuroprotective ganglioside compositions for use in treating huntington's disease” (The Governors of the University of Alberta, priority 2009, dated 2015).

How the values were obtained:
STHdh^111Q/111Q cells [1] = assay: Induction and measurement of apoptosis (annexin V binding / active caspase-3, FACS) in HD knock-in striatal cells; conditions: for protection from apoptosis (annexin V binding, caspase 3 activation): 0.1-1-5-10-20 μM Liga20, knock-in striatal cells WT or HD, FIG. 13
Procedure: Conditionally-immortalized rat striatal ST14A cells and ST14A cells expressing an N-terminal fragment of mHtt containing 120 glutamines (N548-120Q) were kindly provided by Dr. E. Cattaneo (University of Milan, Italy) and maintained in culture at the permissive temperature (33° C.) as previously reported (Rigamonti et al., 2001). Conditionally-immortalized mouse striatal knock-in cells expressing endogenous levels of wild-type (STHdh^Q7/Q7) or mHtt (STHdh^Q111/Q111) were a gift from Dr. M. E. MacDonald (Massachusetts General Hospital, Boston, Mass., USA) and were maintained as previously described (Trettel et al., 2000).
In order to induce apoptosis immortalized cells were incubated at 39° C. […] For apoptosis detection, at the end of each treatment cells were collected, washed with PBS and incubated with PE-conjugated annexin V (BD Biosciences) according to the manufacturer's instructions. For the simultaneous detection of active caspase-3 and annexin V binding, cells were first labeled with annexin V as indicated above, then fixed in 4% paraformaldehyde and permeabilized with 0.3% saponin in PBS containing 4% donkey serum.
GM1 (Alexis) at the indicated concentrations was added to the cells in serum-free medium at the time when cells were shifted at 39° C. to induce apoptosis.
K252a (200 nM, Calbiochem) was used to inhibit TrK receptor-mediated signaling. […] Both inhibitors were administered to the cells 2 hours before induction of apoptosis and administration of GM1.

STHdh^7Q/7Q cells [2] = assay: Induction and measurement of apoptosis (annexin V binding / active caspase-3, FACS) in wild-type knock-in striatal cells; type: cell-based, mouse
Procedure: To inhibit ganglioside synthesis, wild-type cells were incubated for 3 days in medium containing 10 μM 1-phenyl-2-palmitoylamino-3-morpholino-1-propanol (PPMP, Matreya, Pleasant Gap, Pa., USA). Cells were then washed two times with PBS and incubated for 12 hours at 39° C. in serum-free medium to induce apoptosis.

STHdh^7Q/7Q cells [3] = type: cell-based, mouse
[4] = system: Htt phosphorylation at Ser13 and S16; assay: PPMP treatment and immunoblotting of total and phospho-Htt in striatal knock-in cells; type: cell-based, mouse; conditions: 10 μM PPMP for 3 days
Procedure: Knock-in striatal cells expressing wild-type Htt (7/7) or mHtt (111/111) (Trettel, F., et al. (2000)) were incubated for 3 days in medium containing 10 μM 1-phenyl-2-palmitoylamino-3-morpholino-1-propanol (PPMP, Matreya, Pleasant Gap, Pa., USA) to inhibit ganglioside synthesis. Cells were then washed two times with PBS and lysed in 50 mM Tris, 1% NP-40, 1 mM EDTA, 10 mM NaF, 1 mM Na2VO4 and 1:100 protease inhibitor cocktail (SIGMA-Aldrich). […] HRP-conjugated secondary antibodies were used at 1:3,000 dilution (Bio-Rad Laboratories, Hercules, Calif., USA). Protein bands were detected by ECL Plus and quantitated with Quantity One® software (Bio-Rad Laboratories, Hercules, Calif., USA).
In these experiments, synthesis of gangliosides was inhibited in striatal knock-in cells with PPMP, as above. Levels of total and phospho-Htt were detected in total cell lysates using immunoblotting (Panel A) with mAb2166 and N17pS13pS16 antibody, respectively. Panel B is a graph is the densitometric analysis of the immunoblot show in Panel A.

[5] = Wu et al., 2004; cited from earlier work
STHdh^111Q/111Q cells [6] = type: cell-based, mouse; conditions: 50 μM GM1, HD cells, FIG. 5C
AKT = AKT activation (phospho-AKT/AKT ratio) by immunoblotting in striatal knock-in cells; type: cell-based, mouse; conditions: for phospho-AKT/AKT ratio: 7 minutes and 6 hours after addition of GM1, serum-free medium at 39° C.
Procedure: FIG. 7—GM1 protective effect on striatal cells is partially mediated by AKT activation. A) Akt phosphorylation was measured 7 minutes and 6 hours after addition of GM1 in serum-free medium and incubation at 39° C. to induce cell death. Analysis of phospho-AKT/AKT ratio, indicative of AKT activation, was performed by densitometric analysis of immunoblots in three independent experiments. In each experiment, the pospho-AKT/AKT ratio measured in wild-type untreated cells (control) was arbitrarily set to 100% to which HD and GM1-treated samples were compared. Mean values±SD and representative immunoblots are shown. […] The percentage of apoptotic cells was measured by annexin V binding. Data are the mean±SD of 3 experiments, each performed in triplicate. 7/7, STHdh^7Q/7Q; 111/111, STHdh^111Q/111Q; *, p<0.05; **, p<0.001; ***, p<0.0001
Cells were scraped in 10 mM Tris-HCl, pH 7.4, containing 1% NP40, 10 mM NaF, 1 mM Na2VO4 and 1:100 protease inhibitor cocktail (SIGMA-Aldrich, St. Louis, Mo., USA) and lysed by sonication followed by incubation on ice for 30 minutes. Cell debris were removed by centrifugation at 15,000×g for 15 minutes. Protein concentration in the supernatant was measured by BCA assay (Pierce). Thirty μg of proteins were resolved on 10% SDS-PAGE and transferred to nitrocellulose membranes (Bio-Rad Laboratories, Hercules, Calif., USA). Membranes were blocked with 5% non-fat milk in TBS-T (50 mM Tris-HCl, 150 mM NaCl, pH 7.4, 0.1% Tween 20) for 1 hour and then probed overnight with primary antibodies: anti-phospho-AKT (Ser473) (1:500), anti-AKT (1:500) (both from Cell Signaling), Abcam). HRP-conjugated secondary antibodies were used at 1:3,000 dilution (Bio-Rad Laboratories, Hercules, Calif., USA). Protein bands were detected by ECL Plus (Amersham Biosciences) and analyzed with Quantity One® software (Bio-Rad Laboratories, Hercules, Calif., USA).

mHtt = assay: Huntingtin immunoprecipitation and immunoblotting with anti-phospho-Ser antibody; type: cell-based, mouse; conditions: STHdh^111Q/111Q cells, 50 μM GM1 for 5 minutes
[7] = system: Htt phosphorylation at Ser13 and Ser16; assay: Htt phosphorylation in cerebral cortex homogenate of GM1- and CSF-infused mice (immunoblotting, pSer13Ser16 antibody); type: in vivo, mouse; conditions: YAC128 and WT littermates infused for 28 days
Procedure: At the end of the GM1 infusion protocol (28 days after peristaltic pump implantation), mice were euthanized. Brain cortices were dissected and homogenized in 50 mM Tris, 1% NP40, 1 mM EDTA, 10 mM NaF, 1 mM Na2VO4 and 1:100 protease inhibitor cocktail (SIGMA-Aldrich). […] Alexa680-conjugated secondary antibody were used at 1:1,000 dilution in Odyssey buffer. Imaging and analysis were performed using and Odyssey Infrared System (LiCor).
Subsequent to the experimental protocol on animals described above, the mouse brains were dissected and homogenized to examine Htt phosphorylation at Ser13 and Ser16.
In FIG. 20, YAC128 mice and WT littermates infused with CSF (vehicle) or GM1 for 28 days were sacrificed and the amount of phospho-Htt in the same amount of cerebral cortex homogenate was detected by immunoblotting with a pSer13Ser16 specific antibody.

[8] = cited from earlier work
YAC128 mice = assay: Motor behavior (rotarod and horizontal ladder task) during chronic intraventricular GM1 infusion in YAC128 mice
Procedure: (§1) The pump infused a solution of 5.6 mg GM1/ml in artificial cerebrospinal fluid (CSF) (or CSF only in control groups) into the brain ventricle at constant rate (0.25 μl/h, corresponding to 1.4 μg GM1/h or 33.6 μg GM1/day) for 28 days. […] Mice were let recovery for a week, after which motor behavior tests were performed on weekly bases.
(§2) Motor behavior was evaluated with two sensitive tests that are considered the gold-standard for analysis of HD motor deficit: rotarod and horizontal ladder test (Ferrante, R. J. (2009)) To avoid that stress and anxiety would affect motor performance, mice were acclimatized for two days to training room, instruments and tasks to perform, before measuring the actual performance in each specific task. […] Latency to fall off the rotarod in each of these sessions was measured, averaged and compared across groups. For the horizontal ladder walking test, a task that assesses loss and recovery of sensori-motor functions 16, mice were recorded with a videocamera as they walked spontaneously across the ladder. […]
(§3) The pump infused a solution of 3.6 mg GM1/ml in artificial CSF (or CSF only in control groups) into the brain ventricle at constant rate (0.25 μl/h) for 4 weeks. The amount of GM1 infused was calculated in order to achieve 50 μM final concentration in the mouse CSF. […]

wild-type mice = assay: Motor behavior (rotarod and horizontal ladder task) during chronic intraventricular GM1 infusion in wild-type littermates; conditions: intraventricular infusion for 28 days
Procedure: as §1, §2, §3

Compound: COC(=O)[C@@]1(O)C[C@H]2O[C@]1(C)n1c3ccccc3c3c4c(c5c6ccccc6n2c5c31)C(=O)NC4 [K252a]
- effect of pan-Trk inhibitor on GM1 protective activity (STHdh^111Q/111Q cells [1]; 200 nM K252a, 2 hours pre-incubation before GM1 and apoptotic stress, 7/7 and 111/111 cells, FIG. 10): GM1 protective activity was still fully preserved

Compound: CCCCCCCCCCCCCCCC(=O)NC(CN1CCOCC1)C(O)c1ccccc1 (stereo not shown) [PPMP, 1-phenyl-2-palmitoylamino-3-morpholino-1-propanol]
- cell susceptibility to apoptosis after inhibition of ganglioside synthesis (STHdh^7Q/7Q cells [2]; 10 μM PPMP for 3 days, then 12 hours serum-free medium at 39° C., FIG. 6B): increased STHdh^7Q/7Q cell susceptibility to apoptosis to the levels observed in STHdh^111Q/111Q cells
- plasma membrane GM1 levels after inhibition of ganglioside synthesis (STHdh^7Q/7Q cells [3]; 10 μM PPMP for 3 days, wild-type cells, FIG. 6A): reduce GM1 levels to the amount observed in STHdh^111Q/111Q cells
- Htt phosphorylation at Ser13 and S16 after inhibition of ganglioside synthesis [4]: decreases levels of phosphorylation at the same amino acid residues

Compound: LIGA-20
- potency relative to GM1 [5]: at least an order of magnitude more potent than GM1
- protection from apoptosis (annexin V binding, caspase 3 activation) (STHdh^111Q/111Q cells [1]): not effective in protecting striatal cells
- protection from apoptosis (annexin V binding, caspase 3 activation) (STHdh^111Q/111Q cells [1]; listed as Liga20): not protective in a genetic cell model of HD

Compound: ganglioside GM1
- protection from apoptosis (annexin V binding, active caspase-3) (STHdh^7Q/7Q cells [2]; 50 μM, serum deprivation at 39° C., wild-type cells): protected both wild-type and HD cells from apoptosis
- cell survival (STHdh^7Q/7Q cells [2]; treated wild-type cells, 50 μM GM1, apoptotic conditions): cell survival was also further augmented
- effect of GM1 on PPMP-induced susceptibility to apoptosis (STHdh^7Q/7Q cells [2]; wild-type cells pre-treated with 10 μM PPMP for 3 days): abolished PPMP effects
- plasma membrane GM1 levels after GM1 administration (STHdh^111Q/111Q cells [6]): complete restoration of GM1 levels
- GM1 content after GM1 administration (STHdh^7Q/7Q cells [3]; 50 μM GM1, treated wild-type cells, FIG. 5C): further increase of GM1 content above their normal levels
- phospho-AKT/AKT ratio (AKT; STHdh^7Q/7Q cells): increased the phospho-AKT/AKT ratio
- levels of active (phospho) AKT compared with wild-type (AKT; STHdh^111Q/111Q cells after GM1 administration): restored to normal
- phospho-AKT/AKT ratio (AKT; STHdh^111Q/111Q cells): increased the phospho-AKT/AKT ratio
- mHtt phosphorylation (phospho-Ser/mHtt) (mHtt): increased mHtt phosphorylation
- phosphorylation of Htt at Ser13 and Ser16 in cerebral cortex [7]: increase in the phosphorylation of Htt at these residues
- frequency of possible adverse effects such as Guillain-Barre' syndrome (GBS) ([8]; Alter, 1998): rare
- safety in clinical trials ([8]; patients with stroke, Parkinson's disease, spinal cord injury): relatively safe to use
- motor behavior compared with wild-type mice (YAC128 mice; after 13 days of GM1 infusion): indistinguishable from wild-type mice
- motor behavior (rotarod, horizontal ladder task) versus CSF-infused HD mice (YAC128 mice; intraventricular infusion 0.25 μl/h for 28 days, 3 mice per group): performed significantly better than HD control mice infused with CSF
- susceptibility of HD cells to apoptosis compared with wild-type cells (STHdh^111Q/111Q cells [1]; 50 μM, serum deprivation at 39° C.): restored normal susceptibility to apoptosis in HD cells
- protection from apoptosis (annexin V binding, active caspase-3) (STHdh^111Q/111Q cells [1]; 50 μM, serum deprivation at 39° C., HD cells): protected both wild-type and HD cells from apoptosis
- dose-dependency of GM1 anti-apoptotic action (STHdh^111Q/111Q cells [1]; knock-in striatal cells (7/7 and 111/111), 6 hours in serum-free medium at 39° C., FIG. 9): dose-dependent
- behavioral differences GM1 versus CSF infusion (wild-type mice): No behavioral differences were noted
